In ChEMBL document CHEMBL1124898, “Novel agents effective against solid tumors: the diarylsulfonylureas. Synthesis, activities, and analysis of quantitative structure-activity relationships” (J Med Chem, 1990):
Values after ≈ are worked out from the molar mass of the structure shown.

Tests used:
[1] = Antitumor activity in vivo against the 6C3HED lymphosarcoma, dosed for 8 days at 300 mg/kg; conditions: Mus musculus, 192 h
[2] = test system: CCRF-CEM; test: Concentration required to inhibit growth of CCRF-CEM cells in culture for 72 hr to 50% of control growth; assay type: functional, cell-based; conditions: Homo sapiens

Row | Structure (SMILES) | inhibition in vivo at 300 mg/kg [1] | IC50 [2]
1 | Cc1ccc(S(=O)(=O)NC(=O)Nc2ccc(Br)c(C)c2)cc1 | 81% | 7.3 µg/mL (≈ 19 µM)
2 | O=C(Nc1ccc(F)cc1)NS(=O)(=O)c1ccc2c(c1)CCC2 | 39% | > 20 µg/mL
3 | O=C(NCCc1ccccc1)NS(=O)(=O)c1ccc2ccccc2c1 | 0% | > 20 µg/mL
4 | Cc1ccc(S(=O)(=O)NC(=O)Nc2cccnc2)cc1 | 1% | > 20 µg/mL
5 | Cc1ccc(S(=O)(=O)NC(=O)Nc2cccc(C)c2C)cc1 | 8% | 
6 | Nc1ccc(S(=O)(=O)NC(=O)Nc2ccc(Cl)cc2)cc1 | 43% | 13.9 µg/mL (≈ 42.7 µM)
7 | Cc1ccc(S(=O)(=O)NC(=O)Nc2cc(C(C)(C)C)on2)cc1 | 5% | 
8 | Cc1ccc(S(=O)(=O)NC(=O)Nc2ccncc2)cc1 | 24% | > 20 µg/mL
9 | CCc1ccc(S(=O)(=O)NC(=O)Nc2ccc(Cl)cc2)cc1CC | 46% | 12.4 µg/mL (≈ 33.8 µM)
10 | COC(=O)c1ccc(S(=O)(=O)NC(=O)Nc2ccc(Cl)cc2)cc1 | 49% | 17.4 µg/mL (≈ 47.2 µM)
11 | Cc1ccc(S(=O)(=O)NC(=O)Nc2cccc(Cl)c2Cl)cc1 | 37% | > 20 µg/mL
12 | Cc1ccc(S(=O)(=O)NC(=O)Nc2ccc(O)cc2)cc1 | 10% | > 20 µg/mL
13 | Cc1ccc(NC(=O)NS(=O)(=O)c2ccc(C)cc2)cc1 | 91% | 11.6 µg/mL (≈ 38.1 µM)
14 | COc1cc(Cl)c(Cl)cc1NC(=O)NS(=O)(=O)c1ccc(C)cc1 | 3% | > 20 µg/mL
15 | Cc1ccc(S(=O)(=O)NC(=O)Nc2ccc(F)cc2)cc1 | 95% | 17.4 µg/mL (≈ 56.4 µM)
16 | CC(C)(C)c1ccc(S(=O)(=O)NC(=O)Nc2ccc(Cl)cc2)cc1 | 84% | 13.5 µg/mL (≈ 36.8 µM)
17 | Cc1ccc(S(=O)(=O)NC(=O)Nc2ccc3ccccc3c2)cc1 | 5% | 28 µg/mL (≈ 82.3 µM)
18 | O=C(Nc1ccc2c(c1)OCO2)NS(=O)(=O)c1ccc(Cl)cc1 | 28% | > 20 µg/mL
19 | Cc1ccc(S(=O)(=O)NC(=O)Nc2ccccc2C)cc1 | 32% | > 20 µg/mL
20 | Cc1ccc(S(=O)(=O)NC(=O)Nc2cccc(C)c2)cc1 | 0% | > 20 µg/mL
21 | Cc1ccc(S(=O)(=O)NC(=O)Nc2ccc(-c3ccccc3)cc2)cc1 | 0% | > 20 µg/mL

Row | Structure (SMILES) | inhibition in vivo at 300 mg/kg [1] | IC50 [2]
22 | Cc1ccc(S(=O)(=O)NC(=O)Nc2cccc3ccccc23)cc1 | 0% | > 20 µg/mL
23 | O=C(Nc1ccc(F)cc1)NS(=O)(=O)c1ccc(Cl)cc1 | 74% | 14.5 µg/mL (≈ 44.1 µM)
24 | COc1ccc(NC(=O)NS(=O)(=O)c2ccc(OC)cc2)cc1 | 16% | 15.3 µg/mL (≈ 45.5 µM)
25 | Cc1ccc(S(=O)(=O)NC(=O)Nc2ccc(C#N)cc2)cc1 | 31% | > 20 µg/mL
26 | COc1ccc(NC(=O)NS(=O)(=O)c2ccc(C)cc2)cc1 | 6% | > 20 µg/mL
27 | COc1cccc(S(=O)(=O)NC(=O)Nc2ccc(Cl)cc2)c1 | 100% | 8 µg/mL (≈ 23.5 µM)
28 | Cc1ccc(S(=O)(=O)NC(=O)Nc2ccc(Oc3ccccc3)cc2)cc1 | 0% | > 20 µg/mL
29 | COc1ccc(NC(=O)NS(=O)(=O)c2ccc(C)cc2)cc1Cl | 0% | > 20 µg/mL
30 | COc1ccc(NC(=O)NS(=O)(=O)c2ccc(C)cc2)cc1OC | 12% | > 20 µg/mL
31 | Cc1ccc(S(=O)(=O)NC(=O)Nc2cc(Cl)c(Cl)cc2C)cc1 | 15% | 16 µg/mL (≈ 42.9 µM)
32 | O=C(Nc1ccc(Br)cc1)NS(=O)(=O)c1ccc2c(c1)CCC2 | 92% | 17.6 µg/mL (≈ 44.5 µM)
33 | Cc1ccc(S(=O)(=O)NC(=O)Nc2c(F)cc(F)cc2F)cc1 | 27% | > 20 µg/mL
34 | O=C(Nc1ccc(Cl)cc1)NS(=O)(=O)c1ccc2c(c1)OCO2 | 100% | 9.1 µg/mL (≈ 25.7 µM)
35 | Cc1ccc(S(=O)(=O)NC(=O)Nc2nc(C)cc(C)n2)cc1 | 0% | > 20 µg/mL
36 | CCOc1ccc(S(=O)(=O)NC(=O)Nc2ccc(Cl)cc2)cc1 | 100% | 13 µg/mL (≈ 36.6 µM)
37 | Cc1ccc(S(=O)(=O)NC(=O)NCc2ccc(Cl)cc2)cc1 | 14% | > 20 µg/mL
38 | Cc1ccc(S(=O)(=O)NC(=O)NCCc2ccccc2)cc1 | 24% | > 20 µg/mL
39 | Cc1ccc(S(=O)(=O)NC(=O)Nc2ncccn2)cc1 | 0% | > 20 µg/mL
40 | Cc1ccc(S(=O)(=O)NC(=O)Nc2nc(Cl)cc(Cl)n2)cc1 | 0% | > 20 µg/mL
41 | CCc1cccc(NC(=O)NS(=O)(=O)c2ccc(C)cc2)c1 | 0% | > 20 µg/mL
